The source of these data is US9862711B2, “Pyrazine derivatives as phosphatidylinositol 3-kinase inhibitors” (NOVARTIS AG, priority 2014, dated 2018).

This experiment deals with PI 4-kinase beta (Homo sapiens (Human), UniProt Q9UBF8). Briefly: Kinase Glo Luminescent Kinase Assay (Assay D). Format: biochemical. As to conditions: 1 μM ATP, read-out: Assay D PI4Kβ IC50. The text has this:
Kinase Glo Luminescent Kinase Assay (Kglo) for PI 3-Kinase Alpha (A), Pb 3-Kinase Beta (B), Vps34 (C), PI 4-Kinase Beta (D)
The luminescence-based ATP detection reagent KinaseGlo was obtained from Promega, (Cat. No. V6714, Lot No. 236161) through Catalys, Wallisellen, Switzerland. L-alpha-phosphatidylinositol (PI, liver, bovine) was obtained from Avanti Polar Lipid (Cat. No. 840042C, Lot#LPI-274), Phosphatidylinositol-4,5-bisphosphate (PIP(4,5)2) was also obtained from Avanti Polar Lipid (Cat. No. 840046X). L-α-Phosphatidylserine (PS) was obtained from Avanti Polar Lipid (Cat. No. 840032C), n-Octylglucoside from Avanti Polar Lipid (Cat. No. 10634425001). Luminescence is a well established readout to determine ATP concentrations and can thus be used to follow the activity of many kinases regardless of their substrate. The Kinase Glo Luminescent Kinase Assay (Promega, Madison/WI, USA) is a homogeneous HTS method of measuring kinase activity by quantifying the amount of ATP remaining in solution following a kinase reaction.
50 nL of compound dilutions were dispensed onto black 384-well low volume Non Binding Styrene (NBS) plates (Costar Cat. No. NBS#3676). L-α-phosphatidylinositol (PI), provided as 10 mg/ml solution in methanol, was transferred into a glass tube and dried under a nitrogen beam. It was then resuspended in 3% OctylGlucoside (1-O-n-octyl-beta-D-glucopyranoside) by vortexing and stored at 4° C. 5 μL of a mix of PI/OctylGlucoside with the PI 3-kinase alpha and PI 3-kinase beta subtypes, or Vps34 or PI 4-kinase beta were added. Kinase reactions were started by the addition of 5 μl of an ATP-mix containing in a final volume 10 μL 10 mM TRIS-HCl pH 7.5, 3 mM MgCl2, 50 mM NaCl, 0.05% CHAPS, 1 mM DTT and 1 μM ATP at room temperature. Reactions were stopped with 10 μl of KinaseGlo and plates were read 10 mins later in a Synergy2 reader using an integration time of 0.1 seconds per well. 2.5 μM of NVP-BGT226 (1-(3-(trifluoromethyl)-4-(piperazin-1-yl)phenyl)-8-(6-methoxypyridin-3-yl)-3-methyl-1H-imidazo[4,5-c]quinolin-2(3H)-one) was added to the assay plates to generate the 100% inhibition of the kinase reaction, and the 0% inhibition was given by the solvent vehicle (90% DMSO in water). (1-(3-(trifluoromethyl)-4-(piperazin-1-yl)phenyl)-8-(6-methoxypyridin-3-yl)-3-methyl-1H-imidazo[4,5-c]quinolin-2(3H)-one) was used as a reference compound and included in all assay plates in the form of 16 dilution points in duplicate.
IC50 values of the percentage inhibition of each compound at 8 concentrations (10, 3.0, 1.0, 0.3, 0.1, 0.030, 0.010 and 0.003 μM) n=2 were derived by fitting a sigmoidal dose-response curve to a plot of assay readout over inhibitor concentration as described. All fits were performed with the program XLfit4 (ID Business Solutions, Guildford, UK).
Background: In Kinase-Glo more light means more ATP remaining.

Chain of PI 4-kinase beta (Q9UBF8 whole entry): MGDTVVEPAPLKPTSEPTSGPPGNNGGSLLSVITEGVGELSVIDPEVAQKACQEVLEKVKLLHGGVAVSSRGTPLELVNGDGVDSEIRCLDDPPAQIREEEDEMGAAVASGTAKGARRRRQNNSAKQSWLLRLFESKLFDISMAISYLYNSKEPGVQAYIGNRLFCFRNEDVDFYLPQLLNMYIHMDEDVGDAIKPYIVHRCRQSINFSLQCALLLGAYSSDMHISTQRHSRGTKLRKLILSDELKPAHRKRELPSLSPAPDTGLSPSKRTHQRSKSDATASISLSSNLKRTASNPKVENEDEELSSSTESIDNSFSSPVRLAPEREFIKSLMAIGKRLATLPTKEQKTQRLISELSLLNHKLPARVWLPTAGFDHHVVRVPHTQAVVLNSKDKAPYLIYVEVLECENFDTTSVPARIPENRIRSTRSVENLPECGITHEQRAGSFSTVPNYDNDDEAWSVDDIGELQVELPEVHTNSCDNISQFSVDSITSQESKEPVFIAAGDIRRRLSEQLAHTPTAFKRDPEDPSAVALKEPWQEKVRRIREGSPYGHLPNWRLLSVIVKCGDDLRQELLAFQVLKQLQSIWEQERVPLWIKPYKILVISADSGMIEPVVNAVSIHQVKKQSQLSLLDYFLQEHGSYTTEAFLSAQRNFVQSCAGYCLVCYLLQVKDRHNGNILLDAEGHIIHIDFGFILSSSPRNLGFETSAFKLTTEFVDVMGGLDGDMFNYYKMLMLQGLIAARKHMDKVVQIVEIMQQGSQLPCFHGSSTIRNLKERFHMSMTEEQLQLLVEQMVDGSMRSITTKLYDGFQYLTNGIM

For `Cc1ncc(-c2cncc(-c3cc(S(=O)(=O)NCCCO)ccc3C)n2)s1` [Example 1, N-(3-Hydroxy-propyl)-4-methyl-3-[6-(2-methyl-thiazol-5-yl)-pyrazin-2-yl]-benzenesulfonamide], the IC50 is over 9.1 µM.

As to `Cc1ccc(S(=O)(=O)NCC(C)(C)O)cc1-c1cncc(-c2cn(C)nc2C)n1` [Example 2, 3-[6-(1,3-Dimethyl-1H-pyrazol-4-yl)-pyrazin-2-yl]-N-(2-hydroxy-2-methyl-propyl)-4-methyl-benzenesulfonamide], the IC50 is over 9.78 µM.

Take `Cc1ccc(S(=O)(=O)NCCC(C)(C)O)cc1-c1cncc(-c2cn(C)nc2C)n1` [Example 3, 3-[6-(1,3-Dimethyl-1H-pyrazol-4-yl)-pyrazin-2-yl]-N-(3-hydroxy-3-methyl-butyl)-4-methyl-benzenesulfonamide]: the half-maximal inhibitory concentration (IC50) is over 9.55 µM.

Turning to `Cc1ccc(S(=O)(=O)NCC2(C)COC2)cc1-c1cncc(-c2cn(C)nc2C)n1` [Example 4, Trans 3-[6-(1,3-Dimethyl-1H-pyrazol-4-yl)-pyrazin-2-yl]-4-methyl-N-(3-methyl-oxetan-3-ylmethyl)-benzenesulfonamide], the IC50 is over 10 µM.

Regarding `Cc1ncc(-c2cncc(-c3cc(S(=O)(=O)N[C@H]4CC[C@H](O)CC4)ccc3C)n2)s1` [Example 5, Trans N-(4-Hydroxycyclohexyl)-4-methyl-3-(6-(2-methylthiazol-5-yl)pyrazin-2-yl)benzenesulfonamide], the half-maximal inhibitory concentration (IC50) is over 9.1 µM.

With `Cc1ccc(S(=O)(=O)NCC(C)(C)CO)cc1-c1cncc(-c2cn(C)nc2C)n1` [Example 8, 3-[6-(1,3-Dimethyl-1H-pyrazol-4-yl)-pyrazin-2-yl]-N-(3-hydroxy-2,2-dimethyl-propyl)-4-methyl-benzenesulfonamide], the half-maximal inhibitory concentration (IC50) was over 9.55 µM.

Consider `Cc1ccc(S(=O)(=O)NCCC(C)(C)O)cc1-c1cncc(-c2cnn(CCN3CCOCC3)c2)n1` [Example 9, N-(3-Hydroxy-3-methyl-butyl)-4-methyl-3-{6-[1-(2-morpholin-4-yl-ethyl)-1H-pyrazol-4-yl]-pyrazin-2-yl}-benzenesulfonamide], for which the IC50 is over 9.1 µM.

Regarding `Cc1ccc(S(=O)(=O)NCCC(C)(C)O)cc1-c1cncc(-c2cn(CCN3CCOCC3)nc2C)n1` [Example 10, N-(3-Hydroxy-3-methyl-butyl)-4-methyl-3-{6-[3-methyl-1-(2-morpholin-4-yl-ethyl)-1H-pyrazol-4-yl]-pyrazin-2-yl}-benzenesulfonamide], the IC50 was over 10 µM.

Turning to `Cc1ccc(S(=O)(=O)N[C@H]2CC[C@H](O)CC2)cc1-c1cncc(-c2cccnc2)n1` [Example 11, Trans N-(4-Hydroxy-cyclohexyl)-4-methyl-3-(6-pyridin-3-yl-pyrazin-2-yl)-benzenesulfonamide], the 50% inhibitory concentration (IC50) is over 9.1 µM.

The term IC50 denotes the concentration needed to halve the response being measured.
